From patent publication US5439920A, “1,2,5,6-tetrahydropyridine derivative, process for preparing it and its applications in therapy” (Laboratoire L. Lafon, priority 1993, dated 1995) come the findings set out here.

Data set [1] concerns the target T1, α2 receptors of rat cerebral cortex (Rattus norvegicus, UniProt P22909).
T1 construct: The cerebral cortex is immediately removed; from tissue; host or cells: rat cerebral cortex membranes
T1 sequence (P22909 1-465): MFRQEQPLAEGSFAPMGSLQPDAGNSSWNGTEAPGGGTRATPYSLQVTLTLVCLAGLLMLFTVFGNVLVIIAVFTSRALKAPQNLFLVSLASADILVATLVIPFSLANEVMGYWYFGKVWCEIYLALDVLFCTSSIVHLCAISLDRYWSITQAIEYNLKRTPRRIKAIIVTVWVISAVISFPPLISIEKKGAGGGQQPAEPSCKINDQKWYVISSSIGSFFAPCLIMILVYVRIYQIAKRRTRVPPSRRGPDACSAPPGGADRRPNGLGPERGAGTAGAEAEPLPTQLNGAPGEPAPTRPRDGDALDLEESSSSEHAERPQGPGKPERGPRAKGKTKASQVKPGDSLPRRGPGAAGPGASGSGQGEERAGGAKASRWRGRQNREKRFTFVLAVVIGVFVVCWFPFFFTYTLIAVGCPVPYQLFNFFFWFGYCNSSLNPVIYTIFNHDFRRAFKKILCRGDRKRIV
Nature of the data set: Affinity for the α2 receptors of rat cerebral cortex ([^3 H]clonidine displacement). The following applies: rat cerebral cortex membranes, [^3 H]clonidine as marker. The class given is binding, Rats (male, CD1, Sprague-Dawley). The method, then: Rats (male, CD1, Sprague-Dawley, 200-250 g) are sacrificed by decapitation. The cerebral cortex is immediately removed. The cerebral cortices of 4 rats are homogenized in 40 ml of buffer. The homogenates are centrifuged at 20,000 rpm for 15 minutes. The pellet is resuspended in 40 ml of buffer and subjected to a second centrifugation (20,000 rpm for 15 minutes). The pellet thereby obtained is suspended in 8 ml of buffer and then stored at -80° C. until used. On the day of the experiment, a membrane suspension is prepared from the frozen suspension. Aliquots of this membrane suspension are mixed with radioactive ligands (used as marker for each type of receptor) and with increasing concentrations of the test compound, and then incubated (final volume: 1 ml). Reaction is stopped by filtration through a 48-hole HARVESTER system (WHATMAN GF/B filter strip). The filter strip is then washed 3 times with 5 ml of buffer and thereafter placed in an automatic cutting system (BRANDEL). The cut filters fall into counting vials and 4 ml of scintillation fluid (Aquasafe 300, ZINSSER) are distributed automatically by the same system (BRANDEL). Each sample is subjected to counting of the radioactivity using a liquid scintillation counter (KONTRON). Three experimental series are carried out with the test compound, each experiment being carried out in duplicate. […]

The next data set has as its system NMRI mice. Nature of the data set: Pretoxicity in NMRI mice, intraperitoneal. The class given is in vivo. The following applies: 3 animals per dose, IP, increasing doses 16-512 mg/kg. The method, then:
Pretoxicity studies were performed in NMRI mice (3 animals per dose) with increasing doses of 16, 32, 64, 128, 256 and 512 mg/kg of products administered intraperitoneally. The dose causing the death of the three animals tested is given.

The test system of another data set is spontaneous motility. Nature of the data set: Action on spontaneous motility in mice. Type of data set: in vivo. To be noted: Mus musculus, ip, 0.5 h, intraperitoneal, half an hour before test, motility recorded over 30 minutes, read-out: dose at and above which a significant decrease in locomotion is observed. Here is the method:
Half an hour after receiving the test compound intraperitoneally, the mice are placed in an activity-measuring device, where their motility is recorded over 30 minutes.

Data set [2] deals with intergroup aggressive behaviour. Nature of the data set: Action on intergroup aggressive behaviour. The class given is in vivo. To be noted: mice, half an hour after test compound, fights in 10 minutes. The method, then:
After spending 3 weeks in each of the halves of a cage separated by an opaque partition, groups of 3 mice receive the test compound. Half an hour later, the two groups in the same cage are brought together by withdrawing the partition, and the number of fights occurring in the course of 10 minutes is noted.

A further data set concerns α2 receptors. Nature of the data set: Interaction with yohimbine in mice. Type of data set: in vivo.

Structures are written as SMILES. Where a name gives a salt, the structure may show the parent alone.

Turning to `CC(C)N1CCC=C(c2ccccc2)C1` [CRL 41 244, N-isopropyl-3-phenyl-l,2,5,6-tetrahydropyridine, reference compound], the IC50 (in general, the concentration at which inhibition is half-maximal) in data set [1] came to 700 nM.

Regarding `C1=C(c2ccccc2)CNCC1` [Example 1, 3-phenyl-l,2,5,6-tetrahydropyridine hydrochloride], the “dose causing the death of the three animals tested” value in the data set with NMRI mice is recorded as 128 mg/kg. Moreover, the minimal effective dose with spontaneous motility was ≥ 0.032 mg/kg; in data set [2] (Mus musculus, 0.5 h, read-out: dose at and above which the number of fights is decreased), ≥ 0.032 mg/kg. Besides, in data set [2], the “dose at which the number of fights is most particularly decreased” value stood at 0.125 mg/kg. Also, in data set [1], the IC50 worked out at 26 nM. Moreover, in the data set on α2 receptors (yohimbine 0.5 mg/kg i.p., compound 0.125 and 0.5 mg/kg i.p.), the “effect of yohimbine on hypothermia induced by the compound” value is “decreases the hypothermia”. Besides, the “effect of yohimbine on hypomotility induced by the compound” value in the data set with α2 receptors (yohimbine 1 mg/kg i.p., compound 0.5 and 2 mg/kg i.p.) is “decreases the hypomotility”.
